Data from patent US20160106711A1, “3-3-Di-Substituted-Oxindoles as Inhibitors of Translation Initiation” (President and Fellows of Harvard College, priority 2012, published 2016).

Key:
KLN = assay: Cell growth assay (sulforhodamine B), KLN cells; format: cell-based, mouse; settings: 5 days, SRB
Method: […] Plates were then incubated with 0.4% SRB in 1% acetic acid for 1 h, washed with 1% acetic acid to remove the unbound dye, and air-dried. The bound dye was solubilized by addition of 10 mM Tris (pH 10), and the absorbance was determined in a Titertek Multiscan plate reader at 490 nm. The data calculations were carried out as described (the values for mean±SD of data from replicate wells are calculated): data are expressed in terms of % T/C [(OD of treated cells/OD of control cells)×100], as a measure of cell viability and survival in the presence of test materials. Calculations are also made for the concentration of test agents giving a T/C value of 50%, or 50% growth inhibition (IC50). With the SRB assay, a measure is made of the cell population density at time 0 (the time at which drugs are added) from two extra reference plates of inoculated cells fixed with TCA just prior to drug addition to the test plates. Thus, we have three measurements: control optical density (C), test optical density (T), and optical density at time zero (T0). The calculation is 100×[(T−T0)/(C−T0)]. If T is less than T0, cell killing has occurred and can be calculated from 100×[(T−T0)/T0]. Thus, for each drug-cell line combination, a dose-response curve is generated and three levels of effect are calculated.

CRL-2813 = assay: Cell growth assay (sulforhodamine B), CRL-2813 cells; format: cell-based, human; settings: 5 days, SRB
Method: (§1) Adherent mouse (KLN) and human solid tumor cells (CRL-2351, and CRL-2813) were plated in 96-well plates and maintained for 5 days in the presence of 0.54 to 6 μM of individual compound, and cell proliferation was measured by the sulforhodamine B (SRB) assay as described in ref. 11: briefly, cells were fixed in 10% cold trichloroacetic acid at 4° C. for 1 h, extensively washed with double-distilled H2O and air-dried. Plates were then incubated with 0.4% SRB in 1% acetic acid for 1 h, washed with 1% acetic acid to remove the unbound dye, and air-dried. The bound dye was solubilized by addition of 10 mM Tris (pH 10), and the absorbance was determined in a Titertek Multiscan plate reader at 490 nm. The data calculations were carried out as described (the values for mean±SD of data from replicate wells are calculated): data are expressed in terms of % T/C [(OD of treated cells/OD of control cells)×100], as a measure of cell viability and survival in the presence of test materials. Calculations are also made for the concentration of test agents giving a T/C value of 50%, or 50% growth inhibition (IC50). With the SRB assay, a measure is made of the cell population density at time 0 (the time at which drugs are added) from two extra reference plates of inoculated cells fixed with TCA just prior to drug addition to the test plates. Thus, we have three measurements: control optical density (C), test optical density (T), and optical density at time zero (T0). The calculation is 100×[(T−T0)/(C−T0)]. If T is less than T0, cell killing has occurred and can be calculated from 100×[(T−T0)/T0]. Thus, for each drug-cell line combination, a dose-response curve is generated and three levels of effect are calculated.

CRL-2351 = assay: Cell growth assay (sulforhodamine B), CRL-2351 cells; format: cell-based, human; settings: 5 days, SRB
Method: as §1

[1] = test system: eIF2•GTP•Met-tRNAi ternary complex; assay: Ternary complex assay (ATF-4 assay), dual luciferase firefly/renilla ratio; format: cell-based, mouse; settings: for maximal fold induction at 20 µM / maximal fold induction at 10 µM / maximal fold induction at 40 µM / maximal fold induction at 80 µM: Mus musculus; for maximal fold induction at 20 µM / maximal fold induction at 10 µM / maximal fold induction at 80 µM: read-out: ATF-4 Xmax; for maximal fold induction at 40 µM: read-out: ATF-4 Xmax @ 40 μM
Text: For assay development, a bi-directional plasmid was designed in which a common promoter/enhancer complex drives the transcription of firefly luciferase (F-luc) ORF fused to the 5′ untranslated region (UTR) of ATF-4, and of the renilla luciferase (R-luc) ORF fused to a 90-nucleotide 5′ UTR derived from the plasmid (FIG. 6A). Because the tetracycline-regulated transactivator ((tTA), required for driving transcription from this vector) is not normally expressed in the mammalian cells, stable KLN cancer cells were constructed that expressed tTA (KLN-tTA).
The KLN-tTA colonies that drove expression of reporter genes from pBISA-DL plasmid were selected by transient transfection and dual luciferase assay. One of these KLN-tTA cell lines was transfected with the pBISA-DL^(ATF-4) expression vector, stable colonies were selected by dual luciferase assay and expanded.
Plasmids and Ternary Complex Assay
(ATF-4 Assay). Briefly, bi-directional mammalian expression vector pBI (Clontech, CA) was modified to expand the multiple cloning sites (MCSs) and designated thereafter as pBISA. This vector contains seven copies of the tetracycline-regulated transactivator response element (TRE), which together act as core promoter/enhancer. The TRE is flanked on both sides by minimal human cytomegalovirus (CMV) minimal promoters allowing bi-directional transcription and two MCSs. Firefly and renilla luciferases were subcloned into MCS-I and MCS-II, respectively. This plasmid, designated pBISA-DL, transcribes two mRNAs that contain the 90 nucleotide plasmid derived 5′UTR (same sequence in both mRNAs), and the ORF encoding either firefly or renilla luciferase followed by a polyadenylation sequence as described in Ziegeler, G.; Ming, J.; Koseki, J. C.; Sevinc, S.; Chen, T.; Ergun, S.; Qin, X.; Aktas, B. H. J. Biol. Chem. 2010, 285, 15408 hereby incorporated by reference. This plasmid was further modified by inserting the 5′UTR of ATF-4 into MCS-I in front of the firefly luciferase mRNA. Transcription from this direction generates an mRNA that contains the firefly luciferase ORF preceded by a 5′UTR composed of 90 nucleotides derived from the plasmid and 267 nucleotides derived from the 5′UTR of ATF-4 mRNA. Transcription from the other direction generates an mRNA that contains the renilla luciferase ORF proceeded only by the 90-nucleotide plasmid-derived sequence in the 5′UTR. This expression plasmid is called pBISA-DL(ATF-4). In the dual luciferase assay, cells expressing firefly and renilla luciferases were lysed and the extracts assayed with a Dual-Glo Luciferase assay kit, per manufacturer's instruction (Promega Inc., Madison, Wis.). The data calculations were carried out as the ratio of firefly to renilla luciferase signal as described in Chen, T.; Ozel, D.; Qiao, Y.; Harbinski, F.; Chen, L.; Denoyelle, S.; He, X.; Zvereva, N.; Supko, J. G.; Chorev, M.; Halperin, J. A.; Aktas, B. H. Nat. Chem. Biol. 2011, 7, 610 hereby incorporated by reference.

| ATF-4 Xmax ([1]; 80 uM) | Structure (SMILES) | IC50 (KLN; Mus musculus, 120 h) | IC50 (CRL-2813; Homo sapiens, CRL2813, 120 h) | IC50 (CRL-2351; Homo sapiens, 120 h) | maximal fold induction at 20 µM [1] | IC50 (KLN) | IC50 (CRL-2813) | IC50 (CRL-2351) | maximal fold induction at 10 µM [1] | maximal fold induction at 40 µM [1] | maximal fold induction at 80 µM ([1]; 80 uM) |
| --- | --- | --- | --- | --- | --- | --- | --- | --- | --- | --- | --- |
| – | O=C1Nc2ccccc2C1(c1cc(C2CCCC2)ccc1OCCO)c1cc(C2CCCC2)ccc1OCCO [HY058] | 15.2 ± 1.1 µM | 1.3 ± 0.4 µM | 2.4 ± 0.1 µM | 3.35 ± 0.74 | – | – | – | – | – | – |
| 1.19 ± 0.19/80 uM | CCOC(=O)COc1ccccc1C1(c2cc(C(C)(C)C)ccc2OCC(=O)OCC)C(=O)Nc2ccccc21 (stereo not drawn) [HY067] | – | – | – | – | 19.8 ± 1.3 µM | 0.24 µM | 2.1 ± 1.1 µM | – | – | – |
| – | CN(C)CCOc1ccc(C(C)(C)C)cc1C1(c2cc(C(C)(C)C)ccc2O)C(=O)N(CCN(C)C)c2ccccc21 (stereo not drawn) [HY277] | 0.3 ± 0.1 µM | 0.9 ± 0.1 µM | 0.3 ± 0.11 µM | – | – | – | – | 14.3 ± 1.86 | – | – |
| – | CN(C)CCOc1ccc(C(C)(C)C)cc1C1(c2cc(C(C)(C)C)ccc2OCCN(C)C)C(=O)Nc2ccccc21 [HY177] | > 20 µM | 12.5 ± 1 µM | 11.5 ± 1.5 µM | – | – | – | – | – | 1.34 ± 0.38 | – |
| – | CN(C)c1ccc(C2(c3cc(C(C)(C)C)ccc3OCCN3CCOCC3)C(=O)Nc3c2ccc(F)c3F)cc1 (stereo not drawn) [Sd163] | 15.7 ± 1.9 µM | 11 ± 1.3 µM | 4 ± 1 µM | – | – | – | – | – | – | 5.1 ± 0.1 |
| – | CCCN1C(=O)C(c2cc(C(C)(C)C)ccc2O)(c2cc(C(C)(C)C)ccc2OCCN2CCCC2)c2ccccc21 (stereo not drawn) [HY098] | 0.5 ± 0.2 µM | 0.9 ± 0.2 µM | 0.3 ± 0.1 µM | – | – | – | – | 8.7 ± 1.2 | – | – |
| – | COC(=O)c1cccc2c1NC(=O)C2(c1ccc(OC)cc1)c1cc(C(C)(C)C)ccc1O (stereo not drawn) [Sd202] | > 20 µM | 12.2 ± 0.5 µM | 3.4 ± 0.6 µM | – | – | – | – | – | 4.12 ± 0.42 | – |
| – | CC(C)(C)c1ccc(O)c(C2(c3cc(C(C)(C)C)ccc3OCCBr)C(=O)Nc3ccccc32)c1 (stereo not drawn) [HY083] | 11.4 ± 2.2 µM | 1 ± 0.9 µM | 2.4 ± 1.6 µM | – | – | – | – | – | 12.9 ± 2.11 | – |
| – | CC(C)(C)c1cccc(C2(c3cc(C(C)(C)C)ccc3O)C(=O)N(CCBr)c3ccccc32)c1 (stereo not drawn) [HY283] | > 20 µM | 1.4 ± 0.4 µM | 1.5 ± 0.7 µM | – | – | – | – | – | 9.6 ± 0.16 | – |
| – | CC(C)(C)c1ccc(OCCN2CCCCC2)c(C2(c3cc(C(C)(C)C)ccc3OCCN3CCCCC3)C(=O)Nc3ccccc32)c1 [HY172] | 1.3 ± 0.3 µM | 11.6 ± 1.4 µM | 2.14 ± 1.28 µM | – | – | – | – | – | – | 5.91 ± 0.52 |
| – | CC(C)(C)c1ccc(O)c(C2(c3ccccc3)C(=O)Nc3ccc(-c4ccc(N5CCOCC5)nc4)cc32)c1 (stereo not drawn) [Sd231] | 13.3 ± 2.4 µM | 2.5 ± 1.5 µM | 1.8 ± 0.4 µM | – | – | – | – | – | – | 15.6 ± 0.4 |
| – | CC(C)(C)c1ccc(O)c(C2(c3ccccc3)C(=O)Nc3ccc(OC(F)(F)F)cc32)c1 (stereo not drawn) [Sd224] | 8 µM | 1 µM | 2.5 ± 0.9 µM | – | – | – | – | – | 2.56 ± 0.3 | – |
| – | CCN(C)CCOc1ccc(C(C)(C)C)cc1C1(c2cc(C(C)(C)C)ccc2O)C(=O)Nc2ccccc21 (stereo not drawn) [HY301] | 4.6 ± 1.2 µM | 1.5 ± 0.7 µM | 0.9 ± 0.2 µM | 15.1 ± 1.04 | – | – | – | – | – | – |
| – | CC(C)Oc1ccc(O)c(C2(c3cc(OC(C)C)ccc3O)C(=O)Nc3ccccc32)c1 [HY037, 3,3-Bis(2-Hydroxy-5-Isopropoxyphenyl)Indolin-2-One] | > 20 µM | 5.6 ± 0.8 µM | 3.6 ± 0.6 µM | – | – | – | – | – | – | 2.79 ± 0.9 |
| – | CN1CCN(CCOc2ccc(C(C)(C)C)cc2C2(c3cc(C(C)(C)C)ccc3O)C(=O)Nc3ccccc32)CC1 (stereo not drawn) [HY080] | 2.9 ± 0.8 µM | 1.4 ± 0.5 µM | 0.75 ± 0.1 µM | 24.6 ± 3.37 | – | – | – | – | – | – |
| – | CC(C)Oc1ccc(O)c(C2(c3ccccc3)C(=O)Nc3ccccc32)c1 (stereo not drawn) [HY032, 3-(2-Hydroxy-5-Isopropoxyphenyl)-3-Phenylindolin-2-One] | 16.1 ± 2.2 µM | 10.5 ± 1.9 µM | 4.8 ± 1.6 µM | – | – | – | – | – | 4.65 ± 0.58 | – |
| – | CN(C)CCN1C(=O)C(c2cc(C(C)(C)C)ccc2O)(c2cc(C(C)(C)C)ccc2O)c2ccccc21 [HY087] | > 20 µM | > 20 µM | 2.7 ± 0.2 µM | 7.12 ± 1.3 | – | – | – | – | – | – |
| – | CC(C)(C)c1ccc(O)c(C2(c3cc(C(C)(C)C)ccc3O)C(=O)Nc3c2ccc(F)c3F)c1 [HY036, 3,3-Bis(5-tert-Butyl-2-Hydroxyphenyl)-6,7-Difluoroindolin-2-One] | 11.2 ± 3.2 µM | 2.7 ± 0.1 µM | 2.4 ± 0.6 µM | – | – | – | – | – | 4.45 ± 1.07 | – |
| – | CC(C)(C)c1ccc(OCCN2CCOCC2)c(C2(c3ccccc3)C(=O)Nc3ccccc32)c1 (stereo not drawn) [Sd029, 3-(5-tert-Butyl-2-(2-morpholinoethoxy)phenyl)-3-phenylindolin-2-one] | 6.8 ± 3.7 µM | 2.4 ± 0.3 µM | 3.35 ± 0.3 µM | – | – | – | – | – | 4 ± 0.1 | – |
| – | CC(C)(C)c1ccc(OCCO)c(C2(c3cc(C(C)(C)C)ccc3OCCO)C(=O)Nc3ccccc32)c1 [HY169] | 11 ± 2.4 µM | 2.9 ± 0.1 µM | 2.7 ± 0.3 µM | 3.4 ± 0.1 | – | – | – | – | – | – |
| – | COc1ccc(C2(c3cc(C(C)(C)C)ccc3OCCN3CCOCC3)C(=O)Nc3ccccc32)cc1 (stereo not drawn) [Sd139, 3-{5-tert-butyl-2-[2-(morpholin-4-yl)ethoxy]phenyl}-3-(4-methoxyphenyl)-indol-2-one] | 4.3 ± 1 µM | 2.4 ± 0.9 µM | 2.65 ± 1.5 µM | – | – | – | – | – | 6.3 ± 0.3 | – |
| – | CC(C)(C)c1ccc(O)c(C2(c3ccc(O)cc3)C(=O)Nc3ccccc32)c1 (stereo not drawn) [Sd096] | 17.3 ± 1.8 µM | 4 ± 0.28 µM | 2 µM | – | – | – | – | – | 1.69 ± 0.6 | – |
| – | CC(C)(C)c1ccc(OCC(=O)O)c(C2(c3ccccc3)C(=O)Nc3ccccc32)c1 (stereo not drawn) [Sd177] | > 20 µM | > 20 µM | > 20 µM | – | – | – | – | – | – | 1.65 ± 0.04 |
| – | CC(C)(C)c1ccc(O)c(C2(c3cc(C(C)(C)C)ccc3OCCN3CCCCC3)C(=O)Nc3ccccc32)c1 (stereo not drawn) [HY072] | 2.9 ± 0.4 µM | 3.35 ± 0.5 µM | 0.7 ± 0.1 µM | 4.15 ± 0.5 | – | – | – | – | – | – |
